In patent US8044082B2, “N-phenylacetamide inhibitors of the enzyme SOAT-1 and pharmaceutical/cosmetic compositions comprised thereof” (Galderma Research & Development, priority 2007, dated 2011) one finds melting point and IC50 data, which are given here for 26 compounds.

As usually defined, the melting point is the temperature of the solid-liquid transition. One may read the IC50 as the midpoint of a concentration-inhibition curve. A high value points to a need for much substance.

For one data set, the target named is T1, enzyme ACAT-1 (Homo sapiens, UniProt P35610).
T1 sequence (P35610 1-550): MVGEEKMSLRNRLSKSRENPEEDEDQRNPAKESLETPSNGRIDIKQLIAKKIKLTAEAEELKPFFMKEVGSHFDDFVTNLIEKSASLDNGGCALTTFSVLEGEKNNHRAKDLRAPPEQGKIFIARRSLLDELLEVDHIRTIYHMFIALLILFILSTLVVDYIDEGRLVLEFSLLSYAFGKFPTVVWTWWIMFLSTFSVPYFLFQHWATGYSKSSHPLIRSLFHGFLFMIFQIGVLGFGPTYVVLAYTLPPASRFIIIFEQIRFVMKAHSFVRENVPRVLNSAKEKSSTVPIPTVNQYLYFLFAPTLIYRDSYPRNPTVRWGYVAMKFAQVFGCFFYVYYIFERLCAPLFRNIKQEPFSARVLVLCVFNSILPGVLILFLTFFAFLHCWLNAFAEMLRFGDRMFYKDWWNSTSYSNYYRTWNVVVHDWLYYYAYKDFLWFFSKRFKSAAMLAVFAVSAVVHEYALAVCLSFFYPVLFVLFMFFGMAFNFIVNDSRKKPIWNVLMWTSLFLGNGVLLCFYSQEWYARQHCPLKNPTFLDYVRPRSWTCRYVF
The data set can be described thus: ACAT-1 (SOAT-1) inhibition test in HepG2 cells with NBD-cholesterol fluorescence. The class given is cell-based. As to conditions: NBD-cholesterol 1 μg/ml, incubation 6 h at 37° C., fluorescence excitation 490 nm / emission 540 nm. As to the method:
The compounds (I) according to the invention, as well as their pharmaceutically acceptable salts, solvates and/or hydrates, have inhibitory properties on the enzyme SOAT-1. This inhibitory activity on the enzyme SOAT-1 is measured according to a primary enzymatic test HepG2, as described in Example 64.
The compounds of formula (I) according to the invention have been subjected to a test allowing their inhibitory action with respect to the enzyme ACAT-1 to be evaluated inspired by the following publication: “Identification of ACAT1- and ACAT2-specific inhibitors using a novel, cell-based fluorescence assay: individual ACAT uniqueness”, J. Lipid Res. (2004) vol. 45, pages 378-386.
The principle of this test is based on the employment of NBD-cholesterol, an analogue of cholesterol whose fluorescence depends on its environment. When this is present in a polar environment, it is weakly fluorescent although in a nonpolar environment it is strongly fluorescent. Free NBD-cholesterol locates itself in the cell membranes and is weakly fluorescent in this polar environment. When the NBD-cholesterol is esterified by ACAT, the ester of NBD-cholesterol locates itself in the nonpolar lipid droplets and is in that case strongly fluorescent.
The method below is applied: The HepG2 cells are incubated in the presence of NBD-cholesterol (1 μg/ml) and of the compound of formula (I) to be tested in black 96-well plates with a transparent base at a rate of 30 000 cells per well. After incubation for 6 h at 37° C., under 5% CO2, the medium is eliminated by turning over and the cells are washed with 2 times 100 μl of PBS. After addition of 50 μl of lysis buffer (NaPO4 10 mM, Igepal 1%), the plates are stirred for 5 min and read in fluorescence (excitation 490 nm, emission 540 nm) on a FUSION apparatus (Perkin-Elmer).

In the case of `Cc1ccc(N2C(=O)N(CC(=O)Nc3c(C(C)C)cccc3C(C)C)C(=O)C23CCCCC3)cc1` [compound (I.10), N-(2,6-Diisopropylphenyl)-2-(2,4-dioxo-1-p-tolyl-1,3-diazaspiro[4.5]dec-3-yl)acetamide], the melting point was determined as 234 °C. At enzyme ACAT-1, inhibition was half-maximal at 0.2 nM (IC50). In the same order, the values of `CCc1cccc(CC)c1NC(=O)CN1C(=O)N(c2ccc(Cl)cc2)C2(CCCC2)C1=O` [compound (I.61), 2-[1-(4-Chlorophenyl)-2,4-dioxo-1,3-diazaspiro[4.4]non-3-yl]-N-(2,6-diethylphenyl)acetamide] are 218 °C and 2.7 nM.

In turn, `CC(C)c1cccc(C(C)C)c1NC(=O)CN1C(=O)N(c2ccc(F)cc2)C2(CCCCC2)C1=O` [compound (I.7), N-(2,6-Diisopropylphenyl)-2-[1-(4-fluorophenyl)-2,4-dioxo-1,3-diazaspiro-[4.5]dec-3-yl]acetamide] displayed a melting point of 258 °C. At enzyme ACAT-1, this compound came in with an IC50 of 0.8 nM. The compound `CC(C)c1cccc(C(C)C)c1NC(=O)CN1C(=O)N(CCc2ccccc2)C2(CCCCC2)C1=O` [compound (I.23), N-(2,6-Diisopropylphenyl)-2-(2,4-dioxo-1-phenethyl-1,3-diazaspiro[4.5]dec-3-yl)acetamide] showed a melting point of 225 °C. The IC50 against enzyme ACAT-1 was 5.6 nM.

On to `Cc1ccc(N2C(=O)N(CC(=O)Nc3c(C)cc(C)cc3Br)C(=O)C23CCCCC3)cc1` [compound (I.52), N-(2-Bromo-4,6-dimethylphenyl)-2-(2,4-dioxo-1-p-tolyl-1,3-diazaspiro[4.5]dec-3-yl)acetamide], for which the melting point stood at 245 °C. In addition, the IC50 at enzyme ACAT-1 was found to be 5.3 nM. The corresponding values for `CCCCN1C(=O)N(CC(=O)Nc2c(C(C)C)cccc2C(C)C)C(=O)C12CCCCC2` [compound (I.26), 2-(1-Butyl-2,4-dioxo-1,3-diazaspiro[4.5]dec-3-yl)-N-(2,6-diisopropylphenyl)acetamide] are 241 °C and 2.5 nM. The compound `CCCN1C(=O)N(CC(=O)Nc2c(C(C)C)cccc2C(C)C)C(=O)C12CCCCC2` [compound (I.25), N-(2,6-Diisopropylphenyl)-2-(2,4-dioxo-1-propyl-1,3-diazaspiro[4.5]dec-3-yl)acetamide] yielded a melting point of 253 °C.

For the compound `Cc1ccc(N2C(=O)N(CC(=O)Nc3c(C)cccc3Cl)C(=O)C23CCCCC3)cc1` [compound (I.46), N-(2-Chloro-6-methylphenyl)-2-(2,4-dioxo-1-p-tolyl-1,3-diazaspiro[4.5]dec-3-yl)acetamide], the melting point was determined as 244 °C. The compound also yielded an IC50 at enzyme ACAT-1 of 5.1 nM. `Cc1cccc(N2C(=O)N(CC(=O)Nc3c(C(C)C)cccc3C(C)C)C(=O)C23CCCCC3)c1` [compound (I.16), N-(2,6-Diisopropylphenyl)-2-(2,4-dioxo-1-m-tolyl-1,3-diazaspiro[4.5]dec-3-yl)acetamide] yielded a melting point of 215 °C. On the same count and under the same terms, then `CCc1cccc(CC)c1NC(=O)CN1C(=O)N(CC(C)C)C2(CCCCC2)C1=O` [compound (I.59), N-(2,6-Diethylphenyl)-2-(1-isobutyl-2,4-dioxo-1,3-diazaspiro[4.5]dec-3-yl)acetamide], with 209 °C. The same measure, in the same setting: then `CCc1ccc(N2C(=O)N(CC(=O)Nc3c(C(C)C)cccc3C(C)C)C(=O)C23CCCCC3)cc1` [compound (I.36), N-(2,6-Diisopropylphenyl)-2-[1-(4-ethylphenyl)-2,4-dioxo-1,3-diazaspiro[4.5]dec-3-yl]acetamide], with 221 °C; and `CCc1cccc(CC)c1NC(=O)CN1C(=O)N(Cc2ccccc2)C2(CCCCC2)C1=O` [compound (I.63), 2-(1-Benzyl-2,4-dioxo-1,3-diazaspiro[4.5]dec-3-yl)-N-(2,6-diethylphenyl)-acetamide], with 179 °C; and `CC(C)c1cccc(C(C)C)c1NC(=O)CN1C(=O)N(c2ccccc2)C2(CCCCC2)C1=O` [compound (I.2), N-(2,6-Diisopropylphenyl)-2-(2,4-dioxo-1-phenyl-1,3-diazaspiro[4.5]dec-3-yl)acetamide], with 245 °C. On the same count and under the same terms, then `CC(C)c1cccc(C(C)C)c1NC(=O)CN1C(=O)N(c2ccccc2Cl)C2(CCCCC2)C1=O` [compound (I.20), 2-[1-(2-Chlorophenyl)-2,4-dioxo-1,3-diazaspiro[4.5]dec-3-yl]-N-(2,6-di-isopropylphenyl)acetamide], with 252 °C.

Turning to `CCCCCCCCCN1C(=O)N(CC(=O)Nc2c(C(C)C)cccc2C(C)C)C(=O)C12CCCCC2` [compound (I.43), N-(2,6-Diisopropylphenyl)-2-(1-nonyl-2,4-dioxo-1,3-diazaspiro[4.5]dec-3-yl)acetamide], the melting point worked out at 183 °C.

The compound `CCCCc1ccc(N2C(=O)N(CC(=O)Nc3c(CC)cccc3CC)C(=O)C23CCCCC3)cc1` [compound (I.56), 2-[1-(4-Butylphenyl)-2,4-dioxo-1,3-diazaspiro[4.5]dec-3-yl]-N-(2,6-diethyl-phenyl)acetamide] yielded a melting point of 171 °C. On the same count and under the same terms, then `CCc1cccc(CC)c1NC(=O)CN1C(=O)N(c2ccc(C)cc2)C2(CCCCC2)C1=O` [compound (I.48), N-(2,6-Diethylphenyl)-2-(2,4-dioxo-1-p-tolyl-1,3-diazaspiro[4.5]dec-3-yl)-acetamide], with 214 °C. With `CCCCCCCN1C(=O)N(CC(=O)Nc2c(CC)cccc2CC)C(=O)C12CCCCC2` [compound (I.58), N-(2,6-Diethylphenyl)-2-(1-heptyl-2,4-dioxo-1,3-diazaspiro[4.5]dec-3-yl)acetamide], the melting point worked out at 126 °C. Same read-out and setting: then `CC(C)c1cccc(C(C)C)c1NC(=O)CN1C(=O)N(Cc2ccccc2)C2(CCCCC2)C1=O` [compound (I.22), 2-(1-Benzyl-2,4-dioxo-1,3-diazaspiro[4.5]dec-3-yl)-N-(2,6-diisopropyl-phenyl)acetamide], with 214 °C; and `Cc1ccc(N2C(=O)N(CC(=O)Nc3c(C)cccc3C(C)C)C(=O)C23CCCCC3)cc1` [compound (I.47), 2-(2,4-Dioxo-1-p-tolyl-1,3-diazaspiro[4.5]dec-3-yl)-N-(2-isopropyl-6-methylphenyl)acetamide], with 195 °C. Compound `CCCCCCCN1C(=O)N(CC(=O)Nc2c(C(C)C)cccc2C(C)C)C(=O)C12CCCCC2` [compound (I.30), N-(2,6-Diisopropylphenyl)-2-(1-heptyl-2,4-dioxo-1,3-diazaspiro[4.5]dec-3-yl)acetamide] displayed a melting point of 208 °C. Take `CC(C)c1cccc(C(C)C)c1NC(=O)CN1C(=O)N(c2ccccc2)C2(CCCC2)C1=O` [compound (I.1), N-(2,6-Diisopropylphenyl)-2-(2,4-dioxo-1-phenyl-1,3-diazaspiro[4.4]non-3-yl)acetamide]: on enzyme ACAT-1, the half-maximal inhibitory concentration (IC50) is 3.2 nM.

Turning to `Cc1ccc(N2C(=O)N(CC(=O)Nc3c(C)cccc3C(C)(C)C)C(=O)C23CCCCC3)cc1` [compound (I.53), N-(2-tert-Butyl-6-methylphenyl)-2-(2,4-dioxo-1-p-tolyl-1,3-diazaspiro[4.5]dec-3-yl)acetamide], the melting point is 120 °C. On the same count and under the same terms, then `CCc1ccc(N2C(=O)N(CC(=O)Nc3c(C(C)C)cccc3C(C)C)C(=O)C23CCCC3)cc1` [compound (I.37), N-(2,6-Diisopropylphenyl)-2-[1-(4-ethylphenyl)-2,4-dioxo-1,3-diazaspiro[4.4]non-3-yl]acetamide], with 246 °C; and `Cc1ccc(N2C(=O)N(CC(=O)Nc3c(C(C)C)cccc3C(C)C)C(=O)C23CCCC3)cc1` [compound (I.34), N-(2,6-Diisopropylphenyl)-2-(2,4-dioxo-1-p-tolyl-1,3-diazaspiro[4.4]non-3-yl)acetamide], with 278 °C. On the same count and under the same terms, then `CCCCc1ccc(N2C(=O)N(CC(=O)Nc3c(C(C)C)cccc3C(C)C)C(=O)C23CCCC3)cc1` [compound (I.40), 2-[1-(4-Butylphenyl)-2,4-dioxo-1,3-diazaspiro[4.4]non-3-yl]-N-(2,6-diisopropylphenyl)acetamide], with 228 °C.
